The text below walks through data of PMC6498537, “Biomimetic synthesis of the natural product salviadione and its hybrids: discovery of tissue-specific anti-inflammatory agents for acute lung injury” (Chemical Science, 2019).

This data set in a line: Tissue distribution after single intravenous administration. Format: in vivo, SD rats. To be noted: iv 2 mg kg^–1, rat. The procedure: Tissue Distribution Assay. Compound 15a (2 mg/kg) dissolved in PEG300/EtOH/NaCl(40/10/50, v/v/v)to a concentration of 0.4 mg/mL, and was […]
given to SD rats (Male, 180–220 g, three groups with three rats in each group) by intravenous administration. Blood samples and the important tissues including heart, liver, lung, kidney, and brain were collected at 0.25, 2 and 12 h after administration (anticoagulant: EDTA-Na2). For plasma samples, 250 μL of solvent of methanol: acetonitrile (1:1, v/v) with internal standard was added to 50 μL of plasma and vortexed thoroughly. For tissue samples, three times the weight of volume of PBS were added, then homogenized. The homogenates were precipitated by five times of methanol: acetonitrile (1:1, v/v) with internal standard. They were centrifuged for 5 min, and then 20 μL of the supernatant was mixed with 20 μL of water for analysis. Samples were analyzed by AB6500 triple quadrupole mass spectrometer (AB Sciex, USA). The ACQUITY UPLC BEH C18 (1.7 μm, 2.0 mm × 50 mm, Waters, USA) was used for the analysis. Gradient elution was applied consisting of ultrapure water containing 0.1% formic acid and acetonitrile containing 0.1% formic acid. […]

`Cc1coc2c1C(=O)c1c3c-2ccc2c3c(n1Cc1ccccc1)C(=O)CC2(C)C` [Compound 15a]: for the setting “0.25 h”, the Concentration in brain amounted to 224 ng g^–1, the Concentration in heart came to 992 ng g^–1, the “Concentration in heart plasma” value was 144 ng mL^–1 and the Concentration in kidney is 806 ng g^–1. Also, where the note is “0.25 h”, the Concentration in liver was found to be 2557 ng g^–1, the Concentration in lung amounted to 3320 ng g^–1 and the “Concentration in portal vein plasma” value came to 142 ng mL^–1. Under “2 h”, the Concentration in brain worked out at 93.9 ng g^–1, the Concentration in heart was determined as 223 ng g^–1, the “Concentration in heart plasma” value came to 31.2 ng mL^–1 and the Concentration in kidney was determined as 187 ng g^–1. For the same compound, under “2 h”, the Concentration in liver is 518 ng g^–1, the Concentration in lung is recorded as 847 ng g^–1 and the “Concentration in portal vein plasma” value is given as 33.1 ng mL^–1. For the setting “12 h”, the Concentration in brain is reported as 3.11 ng g^–1, the Concentration in heart is listed as 19.8 ng g^–1, the “Concentration in heart plasma” value is 1.90 ng mL^–1 and the Concentration in kidney came to 33.0 ng g^–1. Where the note is “12 h”, the Concentration in liver is reported as 57.3 ng g^–1, the Concentration in lung was found to be 633 ng g^–1, the “Concentration in portal vein plasma” value was determined as 2.04 ng mL^–1 and the “lung drug concentration relative to other tissues” value is reported as 11 to 300 times.
